# Test results: patent US11173162B2, “Bicyclic heterocycles as FGFR4 inhibitors” (Incyte Corporation, priority 2015, dated 2021)
# Tested on: FGFR3 enzyme
# Assay: FGFR Enzymatic Assay (FRET peptide phosphorylation), FGFR3
# Assay type: biochemical
# Details: IC50 ratio showing FGFR3 selectivity; Table 2A, pre-incubated for 4 hours
# Protocol: The inhibitor potency of the exemplified compounds was measured in an enzyme assay that measures peptide phosphorylation using FRET measurements to detect product formation. Inhibitors were serially diluted in DMSO and a volume of 0.5 μL was transferred to the wells of a 384-well plate.
# GraphPad prism3 was used to analyze the data.
Compound,FGFR1/FGFR3,FGFR4/FGFR3
"COc1cc(OC)c(F)c(N2Cc3cnc(-c4cnn(C5(CC#N)CN(C(C)=O)C5)c4)cc3C3(CC3)C2=O)c1F [Example 56, 2-(1-acetyl-3-(4-(2′-(2,6-difluoro-3,5-dimethoxyphenyl)-3′-oxo-2′,3′-dihydro-1′H-spiro[cyclopropane-1,4′-[2,7]naphthyridine]-6′-yl)-1H-pyrazol-1-yl)azetidin-3-yl)acetonitrile]",>5,>1
"COc1cc(OC)c(F)c(N2Cc3cnc(-c4cn(C)nc4C)cc3N(Cc3cnn(C4CC4)c3)C2=O)c1F [Example 124, 1-((1-cyclopropyl-1H-pyrazol-4-yl)methyl)-3-(2,6-difluoro-3,5-dimethoxyphenyl)-7-(1,3-dimethyl-1H-pyrazol-4-yl)-3,4-dihydropyrido[4,3-d]pyrimidin-2(1H)-one]",>10,>10
"COc1cc(OC)c(F)c(N2Cc3cnc(-c4cn(C)nc4C)cc3N(c3cncc(C)n3)C2=O)c1F [Example 87, 3-(2,6-difluoro-3,5-dimethoxyphenyl)-7-(1,3-dimethyl-1H-pyrazol-4-yl)-1-(6-methylpyrazin-2-yl)-3,4-dihydropyrido[4,3-d]pyrimidin-2(1H)-one]",>5,>10
"COc1cc(OC)c(F)c(N2Cc3cnc(-c4cn(C)nc4C)cc3N(c3cc(F)cc(F)c3)C2=O)c1F [Example 103, 3-(2,6-difluoro-3,5-dimethoxyphenyl)-1-(3,5-difluorophenyl)-7-(1,3-dimethyl-1H-pyrazol-4-yl)-3,4-dihydropyrido[4,3-d]pyrimidin-2(1H)-one]",>3,>5
"COc1cc(OC)c(F)c(N2Cc3cnc(-c4cn(C)nc4C)cc3N(c3cc(F)cc(C#N)c3)C2=O)c1F [Example 78, 3-(3-(2,6-difluoro-3,5-dimethoxyphenyl)-7-(1,3-dimethyl-1H-pyrazol-4-yl)-2-oxo-3,4-dihydropyrido[4,3-d]pyrimidin-1(2H)-yl)-5-fluorobenzonitrile]",>5,>3
"COc1cc(OC)c(F)c(N2Cc3cnc(-c4cn(C)nc4C)cc3N(Cc3ccc4c(c3)OCCO4)C2=O)c1F [Example 38, 3-(2,6-difluoro-3,5-dimethoxyphenyl)-1-((2,3-dihydrobenzo[b][1,4]dioxin-6-yl)methyl)-7-(1,3-dimethyl-1H-pyrazol-4-yl)-3,4-dihydropyrido[4,3-d]pyrimidin-2(1H)-one]",>5,>5

# Other lines, results leading:
FGFR1/FGFR3,FGFR4/FGFR3,Compound
>3,>3,"COc1cc(OC)c(F)c(N2Cc3cnc(-c4cnn(CC5CN(S(C)(=O)=O)C5)c4)cc3C3(CC3)C2=O)c1F [Example 166, 2′-(2,6-difluoro-3,5-dimethoxyphenyl)-6′-(1-((1-(methylsulfonyl)azetidin-3-yl)methyl)-1H-pyrazol-4-yl)-1′H-spiro[cyclopropane-1,4′-[2,7]naphthyridin]-3′(2′H)-one]"
>10,>5,"CCNC(=O)c1ccc(-c2cc3c(cn2)CN(c2c(F)c(OC)cc(OC)c2F)C(=O)N3CC)cn1 [Example 175, 5-(3-(2,6-difluoro-3,5-dimethoxyphenyl)-1-ethyl-2-oxo-1,2,3,4-tetrahydropyrido[4,3-d]pyrimidin-7-yl)-N-ethylpicolinamide]"
>10,>3,"COc1cc(OC)c(F)c(N2Cc3cnc(-c4cnn(C5CCN(S(C)(=O)=O)C5)c4)cc3C3(CC3)C2=O)c1F (centres unmarked) [Example 147, 2′-(2,6-difluoro-3,5-dimethoxyphenyl)-6′-(1-(1-(methylsulfonyl)pyrrolidin-3-yl)-1H-pyrazol-4-yl)-1′H-spiro[cyclopropane-1,4′-[2,7]naphthyridin]-3′(2′H)-one]"
>5,>1,"COc1cc(OC)c(F)c(N2Cc3cnc(-c4cn(Cc5cccnc5)nc4C)cc3C3(CC3)C2=O)c1F [Example 155, 2′-(2,6-difluoro-3,5-dimethoxyphenyl)-6′-(3-methyl-1-(pyridin-3-ylmethyl)-1H-pyrazol-4-yl)-1′H-spiro[cyclopropane-1,4′-[2,7]naphthyridin]-3′(2′H)-one]"
